Assay results published in article PMC8050276, “Estradiol analogs attenuate autophagy, cell migration and invasion by direct and selective inhibition of TRPML1, independent of estrogen receptors” (Scientific Reports, 2021).
“Also recorded” adds a separate entry of the source. Like-named read-outs stand apart in the source and are kept apart here.

What was measured:
hTRPML1∆NC-YFP [1] = molecular target: hTRPML1∆NC-YFP (Homo sapiens, UniProt Q9GZU1); type: cell-based
Procedure: (§1) To identify inhibitors of TRPML1 and TRPML3, the Spectrum Collection compound library (MS Discoveries; 2000 compounds) and additional 430 bioactive compounds were screened. To this end, fluorometric Ca^2+ influx assays were performed by using the calcium dye Fluo-4/AM (Invitrogen, Thermo Fisher Scientific, Waltham, MA, USA) and a custom-made fluorescence imaging plate reader built into a robotic liquid handling station (Freedom Evo 150, Tecan, Männedorf, Switzerland). […] Screening compounds dissolved in DMSO (10 mM) were prediluted in 150 mM NaCl, 20 mM HEPES, pH 7.4, to a concentration of 200 µM. For primary screens, HEK293 stably expressing plasma membrane-targeted TRPML1 or TRPML3 were trypsinized and resuspended in cell culture medium supplemented with 4 µM Fluo-4/AM. After incubation at 37 °C for 30 min, the cell suspension was briefly centrifuged resuspended in HBS, and dispensed into black pigmented, clear-bottom 384-well microwell plates (Greiner μClear, Frickenhausen, Germany). Plates were placed into the FLIPR and fluorescence signals (excitation 470 nm, emission 515 nm) were recorded with a Zyla 5.5 camera (Andor, Belfast, UK) and the μManager software like previously described. In a first video, compound libraries were successively added to the cells with the Tecan 96-tip multichannel arm to a final concentration of 20 µM to map unspecific effects like autofluorescence or toxicity. In a second step the agonist ML-SA1 was pipetted in each well and fluorescence signals were recorded for 10 min. Analyses were done by calculating fluorescence intensities for each well and background areas with ImageJ (National Institutes of Health, Bethesda, MD, USA). Finally, the background was subtracted and the fluorescence intensities were normalized to initial intensities (F/F0). Concentration response curves were generated by the same procedure but compounds were manually prediluted in 96-well plates containing HBS, now supplemented with 0.1% bovine serum albumin. Here data was fitted to a four-parameter Hill equation to obtain Imin, Imax, IC50), and the Hill coefficient n.

hTRPML1∆NC-YFP [2] = type: cell-based, human; settings: for TRPML isoform selectivity profile: TRPML1, 2, 3 and TPC2, Fluo-4; for TRPML1:TRPML2 fold selectivity / TRPML1:TRPML3 fold selectivity: ratio of Fluo-4 IC50 values
Procedure: as §1

hTRPML3-YFP = molecular target: T1, hTRPML3-YFP (Homo sapiens, UniProt Q8TDD5); experiment: Fluo-4 Ca2+ influx assay, HEK293 stably expressing hTRPML3-YFP, activated with ML-SA1; type: cell-based
T1 construct: expressed in transfected cells
Procedure: To identify inhibitors of TRPML1 and TRPML3, the Spectrum Collection compound library (MS Discoveries; 2000 compounds) and additional 430 bioactive compounds were screened. To this end, fluorometric Ca^2+ influx assays were performed by using the calcium dye Fluo-4/AM (Invitrogen, Thermo Fisher Scientific, Waltham, MA, USA) and a custom-made fluorescence imaging plate reader built into a robotic liquid handling station (Freedom Evo 150, Tecan, Männedorf, Switzerland). All measurements were done in a HEPES buffered solution (HBS), containing 132 mM NaCl, 6 mM KCl, 1 mM MgCl2, 1 mM CaCl2, 5.5 mM D-glucose, 10 mM HEPES, pH 7.4. Screening compounds dissolved in DMSO (10 mM) were prediluted in 150 mM NaCl, 20 mM HEPES, pH 7.4, to a concentration of 200 µM. For primary screens, HEK293 stably expressing plasma membrane-targeted TRPML1 or TRPML3 were trypsinized and resuspended in cell culture medium supplemented with 4 µM Fluo-4/AM. After incubation at 37 °C for 30 min, the cell suspension was briefly centrifuged resuspended in HBS, and dispensed into black pigmented, clear-bottom 384-well microwell plates (Greiner μClear, Frickenhausen, Germany). Plates were placed into the FLIPR and fluorescence signals (excitation 470 nm, emission 515 nm) were recorded with a Zyla 5.5 camera (Andor, Belfast, UK) and the μManager software like previously described. In a first video, compound libraries were successively added to the cells with the Tecan 96-tip multichannel arm to a final concentration of 20 µM to map unspecific effects like autofluorescence or toxicity. In a second step the agonist ML-SA1 was pipetted in each well and fluorescence signals were recorded for 10 min. Analyses were done by calculating fluorescence intensities for each well and background areas with ImageJ (National Institutes of Health, Bethesda, MD, USA). Finally, the background was subtracted and the fluorescence intensities were normalized to initial intensities (F/F0). Concentration response curves were generated by the same procedure but compounds were manually prediluted in 96-well plates containing HBS, now supplemented with 0.1% bovine serum albumin. Here data was fitted to a four-parameter Hill equation to obtain Imin, Imax, IC50), and the Hill coefficient n.

LC3 = experiment: Autophagy assay, LC3 immunoblot in human fibroblasts (Fed/Hbss, with bafilomycin A1); type: cell-based; settings: Hbss starvation, with BafA1
Procedure: 5 × 10^4 wild-type human fibroblasts were seeded in a 12-well plate and treated overnight with DMSO or different TRPML1 inhibitors (EDME, PRU-10, PRU-12). The day after, cells were treated for 3 h in full media (Fed) or HBSS supplemented with 10 mM HEPES (nutrient starved) in presence of DMSO or different TRPML1 inhibitors (EDME, PRU-10, PRU-12). For autophagic flux experiments, cells were co-treated with 100 nM of bafilomycin A1 (Sigma).
Total cell lysates were prepared using TRIS HCl 10 mM pH 8.0 and 0.2% SDS supplemented with protein and phosphatase inhibitors (Sigma). Protein concentration was determined using the Bradford method. After SDS–polyacrylamide gel electrophoresis (PAGE) and immunoblotting, the protein recognized by the specific antibody was visualized by chemiluminescence methods (Luminata Crescendo Western HRP substrate, Millipore) using HRP-conjugated anti-rabbit or anti-mouse secondary antibodies (Cell Signalling). Images were acquired using Li-Cor Odyssey Fc Imaging System and densitometric quantification of unsaturated images was performed using ImageJ software (NIH). Uncropped and unprocessed western blot scans are provided as Fig. S1. The following primary antibodies were used: LC3 (Novus Cat. No. NB100-2220, 1:1000 in 5% milk), TFEB (Cell Signaling Cat. No. 4240, 1:1000 in 5% BSA) and β-actin (Santa Cruz Cat. No. Sc-47778, 1: 1000 in 5% BSA).

[3] = read-out: TRPML1 IC50, Fluo-4, 5 µM ML-SA1, Fig. 2a/4, Table S1
[4] = Fluo-4, 5 µM ML-SA1, Table S1, read-out: TRPML3 IC50

T1 sequence (Q8TDD5 whole entry): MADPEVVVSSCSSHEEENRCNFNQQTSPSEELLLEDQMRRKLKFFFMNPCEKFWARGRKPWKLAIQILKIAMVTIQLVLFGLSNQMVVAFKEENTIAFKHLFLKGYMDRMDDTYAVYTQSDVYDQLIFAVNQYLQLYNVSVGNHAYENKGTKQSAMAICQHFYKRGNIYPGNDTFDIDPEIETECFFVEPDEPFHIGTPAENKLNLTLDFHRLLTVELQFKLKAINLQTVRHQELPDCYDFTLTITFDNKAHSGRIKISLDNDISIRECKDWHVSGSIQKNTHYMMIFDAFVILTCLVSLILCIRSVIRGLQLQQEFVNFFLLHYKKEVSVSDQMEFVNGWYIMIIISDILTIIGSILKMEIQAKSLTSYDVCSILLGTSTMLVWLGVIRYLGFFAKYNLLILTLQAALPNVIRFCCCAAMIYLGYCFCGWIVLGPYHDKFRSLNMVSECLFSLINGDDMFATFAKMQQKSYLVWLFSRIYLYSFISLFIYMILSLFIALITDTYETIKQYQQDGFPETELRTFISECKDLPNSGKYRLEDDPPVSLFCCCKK
Chain of hTRPML1∆NC-YFP (Homo sapiens, UniProt Q9GZU1) (Q9GZU1 whole entry): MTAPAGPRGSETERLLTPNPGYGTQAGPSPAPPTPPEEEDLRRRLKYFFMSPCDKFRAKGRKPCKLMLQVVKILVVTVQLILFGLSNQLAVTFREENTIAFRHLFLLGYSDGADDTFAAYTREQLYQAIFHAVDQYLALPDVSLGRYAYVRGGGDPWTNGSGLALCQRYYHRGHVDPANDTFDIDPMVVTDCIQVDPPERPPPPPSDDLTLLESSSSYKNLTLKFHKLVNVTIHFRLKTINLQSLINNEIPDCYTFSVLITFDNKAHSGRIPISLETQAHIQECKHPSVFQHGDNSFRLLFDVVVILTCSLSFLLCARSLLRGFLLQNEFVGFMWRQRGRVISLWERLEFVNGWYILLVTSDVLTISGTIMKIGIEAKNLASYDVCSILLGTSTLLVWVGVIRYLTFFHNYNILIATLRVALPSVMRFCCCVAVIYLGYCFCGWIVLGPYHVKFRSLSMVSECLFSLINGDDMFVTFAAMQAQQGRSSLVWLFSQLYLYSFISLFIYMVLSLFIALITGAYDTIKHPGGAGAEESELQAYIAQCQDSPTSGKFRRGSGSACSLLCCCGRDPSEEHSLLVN

**Q.** How did the IC50 (hTRPML1∆NC-YFP [1]; [3]) turn out when `CC(=O)c1ccc2c(c1)CC[C@@H]1[C@@H]2CC[C@]2(C)[C@@H](O)CC[C@@H]12` [PRU-12] was run?
**A.** 0.28 µM

**Q.** And the “TRPML isoform selectivity profile” value (hTRPML1∆NC-YFP [2])?
**A.** further improved selectivity profile compared to EDME; also recorded: good TRPML isoform selectivity profile

**Q.** And the “TRPML1:TRPML2 fold selectivity” value (hTRPML1∆NC-YFP [2])?
**A.** 18.86 fold

**Q.** What about the “TRPML1:TRPML3 fold selectivity” value (hTRPML1∆NC-YFP [2]) of the same molecule?
**A.** 50.29 fold

**Q.** What about the IC50 (hTRPML3-YFP; [4]) of the same molecule?
**A.** 14.1 µM

**Q.** And the “concentration showing efficacy on autophagy (LC3)” value (LC3)?
**A.** 1 µM

**Q.** For `COc1ccc2c(c1)CC[C@@H]1[C@@H]2CC[C@]2(C)[C@@H](O)CC[C@@H]12` [EDME, 17β-estradiol methyl ether], which “inhibitory effect on TRPML1” value (hTRPML1∆NC-YFP [1]; 12.5 µM compound, 5 µM ML-SA1, Fig. 1f) is on record?
**A.** completely blocks TRPML1

**Q.** What about the IC50 (hTRPML1∆NC-YFP [1]; read-out: TRPML1 IC50, concentration-response retest of screening hits and steroids, Fluo-4, 5 µM ML-SA1, Fig. 1b-e, S1) of the same molecule?
**A.** 0.5 µM

**Q.** And the “primary screen result” value (hTRPML1∆NC-YFP [2]; 20 µM compound, 5 µM ML-SA1, TRPML1 and TRPML3)?
**A.** TRPML1 selective hit

**Q.** What about the “TRPML1 versus TRPML3 selectivity” value (hTRPML1∆NC-YFP [2]; Fluo-4, TRPML1 vs TRPML3, 5 µM ML-SA1) of the same molecule?
**A.** highly TRPML1-selective

**Q.** And the “TRPML1:TRPML2 fold selectivity” value (hTRPML1∆NC-YFP [2])?
**A.** 9.14 fold

**Q.** What about the “TRPML1:TRPML3 fold selectivity” value (hTRPML1∆NC-YFP [2]) of the same molecule?
**A.** 30.47 fold

**Q.** And the IC50 (hTRPML3-YFP)?
**A.** 19.5 µM

**Q.** And the “concentration showing efficacy on autophagy (LC3)” value (LC3)?
**A.** 1 µM

**Q.** What does the source list for `C=Cc1ccc2c(c1)CC[C@@H]1[C@@H]2CC[C@]2(C)[C@@H](O)CC[C@@H]12` [PRU-10]?
**A.** IC50 (hTRPML1∆NC-YFP [1]; [3]): 0.41 µM; TRPML isoform selectivity profile (hTRPML1∆NC-YFP [2]): further improved selectivity profile compared to EDME; also recorded: good TRPML isoform selectivity profile; TRPML1:TRPML2 fold selectivity (hTRPML1∆NC-YFP [2]): 13.17 fold; TRPML1:TRPML3 fold selectivity (hTRPML1∆NC-YFP [2]): 38.61 fold; IC50 (hTRPML3-YFP; [4]): 15.8 µM; concentration showing efficacy on autophagy (LC3) (LC3): 3 µM
